ChEMBL document CHEMBL1127754, “Design and synthesis of seco-oxysterol analogs as potential inhibitors of 3-hydroxy-3-methylglutaryl-coenzyme A (HMG-CoA) reductase gene transcription” (J Med Chem, 1994)

Experiments:
Assay type in all cases: cell-based
[1] = target: T1, 3-hydroxy-3-methylglutaryl-coenzyme A reductase (Homo sapiens) (UniProt P04035); assay: Tested for the percent inhibition against HMG-CoA reductase transcription in HepG2 cells; parameters: concentration or dose not given beside the values; details: concentration not given here
T1 sequence (whole entry): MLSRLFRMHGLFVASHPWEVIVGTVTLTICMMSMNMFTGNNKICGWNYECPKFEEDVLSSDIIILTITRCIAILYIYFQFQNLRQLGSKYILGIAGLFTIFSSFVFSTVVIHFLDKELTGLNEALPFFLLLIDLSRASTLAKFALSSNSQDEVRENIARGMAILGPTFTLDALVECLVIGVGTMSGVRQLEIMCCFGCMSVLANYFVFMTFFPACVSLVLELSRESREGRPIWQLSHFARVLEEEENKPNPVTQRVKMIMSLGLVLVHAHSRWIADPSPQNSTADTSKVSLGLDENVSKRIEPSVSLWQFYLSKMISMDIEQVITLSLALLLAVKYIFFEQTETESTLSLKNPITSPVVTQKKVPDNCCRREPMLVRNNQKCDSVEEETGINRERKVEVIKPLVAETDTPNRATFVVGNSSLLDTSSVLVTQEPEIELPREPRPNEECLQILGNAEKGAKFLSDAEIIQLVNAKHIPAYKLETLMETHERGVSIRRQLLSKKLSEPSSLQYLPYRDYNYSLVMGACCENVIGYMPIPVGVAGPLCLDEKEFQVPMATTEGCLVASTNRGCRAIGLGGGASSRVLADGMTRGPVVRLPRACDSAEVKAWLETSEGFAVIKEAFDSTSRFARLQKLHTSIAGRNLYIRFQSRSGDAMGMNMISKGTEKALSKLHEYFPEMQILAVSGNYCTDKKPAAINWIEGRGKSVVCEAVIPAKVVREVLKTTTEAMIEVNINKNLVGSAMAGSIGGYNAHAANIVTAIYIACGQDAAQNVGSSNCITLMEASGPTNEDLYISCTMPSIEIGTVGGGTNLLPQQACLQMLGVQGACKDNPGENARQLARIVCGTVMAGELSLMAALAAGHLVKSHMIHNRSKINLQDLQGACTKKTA

[2] = target: T2, 3-hydroxy-3-methylglutaryl-coenzyme A reductase (Homo sapiens, UniProt P04035); assay: Tested for its inhibitory activity against HMG-CoA reductase transcription in HepG2 cells
T2 sequence (P04035 whole entry): T1 sequence (whole entry)

[3] = target: T1, 3-hydroxy-3-methylglutaryl-coenzyme A reductase (Homo sapiens); assay: Tested for its percent inhibition against HMG-CoA reductase transcription in HepG2 cells in HMG-CoA reductase m-RNA assay; details: concentration not given here
[4] = target: T1, 3-hydroxy-3-methylglutaryl-coenzyme A reductase (Homo sapiens); assay: Tested for its percent inhibition against HMG-CoA reductase transcription in HepG2 cells in HMG-CoA reductase assay; details: concentration not given here
[5] = target: T1, 3-hydroxy-3-methylglutaryl-coenzyme A reductase (Homo sapiens); assay: Tested for its percent inhibition against HMG-CoA reductase transcription in HepG2 cells in LDL-receptor binding assay; details: concentration not given here

Row | SMILES | inhibition [1] [%] | other results
1 | CC(C)(O)CCCCc1ccc(CC[C@]2(C)CC[C@@H](O)CC2)cc1 | 0 | 
2 | CC(C)(O)CCCCc1ccc(/C=C/[C@]2(C)CC[C@@H](O)CC2)cc1 | 0 | 
3 | CC(C)(O)CCCC[C@H]1CC[C@@H](/C=C/[C@]2(C)CC[C@@H](O)CC2)C1 (stereo in doubt; 6) | 0 | 
4 | CC(C)(O)CCCC[C@H]1CC[C@@H](CC[C@]2(C)CC[C@@H](O)CC2)C1 | 0 | 
5 | CC(C)(O)CCCCc1cccc(/C=C/[C@]2(C)CC[C@@H](O)CC2)c1 | 46.3 | IC50 [2]: 10 µM; inhibition [3]: 72.7%; inhibition [4]: 29.7%
6 | C[C@H](CCCC(C)(C)O)[C@H]1CC[C@H]2[C@@H]3CC=C4C[C@@H](O)CC[C@]4(C)[C@H]3CC[C@]12C | 70 | IC50 [2]: 0.3 µM; inhibition [5]: 64%; inhibition [3]: 58.2%; inhibition [4]: 48.4%
7 | CC(C)CCCC[C@@H]1C[C@H](/C=C/[C@]2(C)CC[C@@H](O)CC2)[C@@H](O)[C@H]1O (stereo in doubt; 37) | 0 | 
8 | CC(C)(O)CCCCc1cccc(CC[C@]2(C)CC[C@@H](O)CC2)c1 | 29.3 | 
9 | CC(C)CCCC[C@@H]1C[C@H](/C=C/[C@]2(C)CC[C@@H](O)CC2)[C@@H](O)[C@H]1O (stereo in doubt; 7) | 0 | 
10 | CC(C)(O)CCCC[C@H]1CC[C@@H](/C=C/[C@]2(C)CC[C@@H](O)CC2)C1 (stereo in doubt; 28) | 0 | 
